Experimental data from publication PMC3829422, “Conformational Plasticity and Ligand Binding of Bacterial Monoacylglycerol Lipase” (The Journal of Biological Chemistry, 2013).
Numbering of substitutions follows the chain as printed.

Assays:
Assay in all cases: X-ray crystal structure, […] A
Format in all cases: binding
bMGL [1] = target: T1, bMGL (Bacillus sp. H-257, UniProt P82597, D196N); conditions: inactive variant; co-crystallised and soaked; HEPES pH 6.9; active site, chain A only; noncovalent
T1 construct: cap Asn-120-Thr-164; catalytic triad Ser-97, Asp-196, His-226
T1 sequence (P82597 1-250 D196N): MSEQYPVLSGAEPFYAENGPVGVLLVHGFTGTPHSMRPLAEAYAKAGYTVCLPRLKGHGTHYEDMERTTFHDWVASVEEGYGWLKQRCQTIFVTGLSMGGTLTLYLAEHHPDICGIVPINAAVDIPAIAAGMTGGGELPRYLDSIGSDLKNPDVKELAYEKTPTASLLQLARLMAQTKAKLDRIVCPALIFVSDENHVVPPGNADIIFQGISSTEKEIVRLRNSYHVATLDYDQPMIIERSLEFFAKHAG

bMGL [2] = target: T2, bMGL (Bacillus sp. H-257, UniProt P82597); conditions: covalent; Ser-97 phosphonate adduct, 4-nitrophenol released; MES/imidazole pH 6.5
T2 construct: cap Asn-120-Thr-164; catalytic triad Ser-97, Asp-196, His-226
T2 sequence (P82597 1-250): T1 sequence (P82597 1-250 D196N) with N196D

bMGL [3] = target: T2, bMGL; conditions: covalent; Ser-97 phosphonate adduct, 4-nitrophenol released; citric acid pH 5.2
bMGL [4] = target: T2, bMGL; conditions: covalent; Ser-97 phosphonate adduct, 4-nitrophenol released; citric acid pH 5.0

## CCCCCCCCCCCC(=O)OCC(O)CO (racemic) [1-LG, 1-lauroylglycerol]
bMGL [1]
  X-ray crystal structure, 2.8 A: we only interpreted the electron density of the bMGL(D196N)-1-LG crystal in chain A as substrate

## CCCCCCCCCCCCOP(=O)(CCCN=[N+]=[N-])Oc1ccc([N+](=O)[O-])cc1 (stereo not shown) [C12 ligand, dodecyl 4-nitrophenyl (3-azidopropyl)phosphonate]
bMGL [2]
  X-ray crystal structure, 1.7 A: both had the C12 ligand covalently bound in the active site

## CCCCCCCCCCCCCCOP(=O)(CCCN=[N+]=[N-])Oc1ccc([N+](=O)[O-])cc1 (stereo not shown) [C14 ligand]
bMGL [3]
  X-ray crystal structure, 1.85 A: electron densities for the ligands bound to active site residue Ser-97 were observed

## CCCCCCCCCCCCCCCCOP(=O)(CCCN=[N+]=[N-])Oc1ccc([N+](=O)[O-])cc1 (stereo not shown) [C16 ligand]
bMGL [4]
  X-ray crystal structure, 2.2 A: electron densities for the ligands bound to active site residue Ser-97 were observed
